Experimental findings from US12122780B2, “Pyrimidinyl group-containing tricyclic compound serving as c-Met inhibitor” (JIANGSU AOSAIKANG PHARMACEUTICAL CO., LTD., priority 2019, dated 2024) are described below.

Counter-ions that a name gives are not always drawn.

Broadly, the bioavailability is dose-corrected exposure relative to a reference, in per cent. High values mean good availability, low ones poor availability. By IC50 is commonly meant the midpoint of a concentration-inhibition curve. A lower IC50 goes with greater potency.

Data set [1] can be described thus: Pharmacokinetics of single intravenous and oral administration in mice. The data set is classed as in vivo. To be noted: for Exposure AUC / Vd / clearance / half-life: intravenous injection, 1 mg/kg; for Vd / clearance / half-life / bioavailability: mouse, plasma; for Vd: read-out: Apparent volume of distribution; for clearance: read-out: Clearance rate; for half-life: read-out: Half-life (T1/2) (converted); for bioavailability / Exposure AUC0-last / Maximum blood concentration / Peak time: oral administration, 10 mg/kg. The method, then: The objective of this experiment was to study the pharmacokinetics (PK) of the test compound in different species after a single intravenous and a single oral administration.
After intravenous injection or oral administration, animal blood samples were collected and the actual blood collection time was recorded. Immediately after collection, blood samples were transferred to labeled centrifuge tubes containing K2-EDTA and subsequently centrifuged and processed to obtain plasma. Plasma was transferred to pre-cooled centrifuge tubes, snap-frozen in dry ice and stored in an ultra-low temperature refrigerator at −70±10° C. until LC-MS was performed.
Plasma drug concentration data of the compounds were processed using pharmacokinetic software with a non-compartmental model. The peak concentration (Cmax) and time to peak (Tmax), as well as the quantifiable end time, were obtained directly from the blood concentration-time diagram. The log-linear trapezoidal method was used to calculate the following pharmacokinetic parameters: half-life (T1/2), apparent volume of distribution (Vdss) and clearance rate (Cl), and the area under the time-plasma concentration curve from 0 points to the end time (AUC0-last), the initial concentration (C0).

For data set [2], the system named is human lung cancer EBC-1 xenograft tumor. Briefly: In vivo drug efficacy, human lung cancer EBC-1 xenograft tumor in nude mice. Details: species or system BALB/c nude mice. To be noted: for Tumor volume: n = 6; for TGI (tumor growth inhibition rate) / TRTV/CRTV (relative tumor proliferation rate T/C): 25th day. The method, then:
BALB/c nude mice, female, 6-8 weeks old, weighing about 18-20 grams, animals were raised in SPF-class animal rooms in IVC (independent air supply system, constant temperature and humidity) cages (3 per cage). All cages, bedding and water were disinfected before use. All animals had free access to standard certified commercial laboratory diets. A total of 36 mice purchased from Shanghai Lingchang Biotechnology Co., Ltd. were used for research. Each animal was inoculated with 0.1 mL (5×10^6 cells) of EBC-1 cells on the right back, when the average tumor volume reached 243 mm^3, the animals were randomly grouped and the administration was started. The test compound was orally administered daily, the dose of hydrochloride of compound 24 was 10 mg/kg, the two doses of hydrochloride of compound 25 were 10 mg/kg and 20 mg/kg, respectively, and the dose of hydrochloride of compound 29 was 10 mg/kg. The tumor diameter was measured with vernier calipers twice a week. The calculation formula of tumor volume was: V=0.5a×b^2, a and b represented the long diameter and short diameter of the tumor, respectively. The anti-tumor efficacy of the compound was evaluated by TGI (%) or the relative tumor proliferation rate T/C (%). Relative tumor proliferation rate T/C (%)=TRTV/CRTV×100% (TRTV: average RTV in the treatment group; CRTV: average RTV in the negative control group). The relative tumor volume (RTV) was calculated according to the results of tumor measurement, the calculation formula was RTV=Vt/V0, wherein V0 was the tumor volume measured at the time of the grouping administration (i.e. D0), Vt was the tumor volume at a certain measurement, and TRTV and CRTV were taken on the same day. TGI (%) reflected the tumor growth inhibition rate. TGI (%)=[(1−(average tumor volume of a certain treatment group after administration-average tumor volume of the treatment group at the beginning of administration))/(average tumor volume of the solvent control group after the administration-average tumor volume of the solvent control group at the beginning of the administration)]×100%. Statistical analysis was performed based on RTV data at the end of the experiment, and SPSS software was used for analysis.
On the technique in general: A xenograft is tissue or cells of one species grown in another, often human tumour cells in immunodeficient mice.

Data set [3] has as its system EBC-1 cells. Briefly: EBC-1 cell proliferation experiment (CellTiter-Glo). The class given is cell-based, human. The conditions noted are these: Homo sapiens, EBC-1, 72 h, 3 days. Here is the method: MEM medium, fetal bovine serum, penicillin/streptomycin antibiotics were purchased from Wisent. EBC-1 cell line was purchased from Nanjing COBIO Bioscience Co., LTD. Envision multi-label analyzer (PerkinElmer).
EBC-1 cells were seeded in a white 96-well plate, […] cell suspension per well, which contained 3000 EBC-1 cells. The cell plate was placed in a carbon dioxide incubator for overnight culture.
The compound to be tested was diluted 5-fold to the eighth concentration with a discharge gun, i.e., from 2 mM to […], and double duplicate wells experiment was set. 78 μL of the medium was added to the middle plate, then 2 μL per well of gradient diluted compound was transferred to the corresponding position on the middle plate, then mixed well and 20 μL per well was transferred to the cell plate. The cell plate was cultured in a carbon dioxide incubator for 3 days. Another cell plate was prepared and the signal values were read on the day of dosing as […] to be used in the data analysis. 25 μL of Promega CellTiter-Glo was added to each well of this cell plate, and incubated at room temperature for 10 minutes to stabilize the luminescence signal. Readings were taken using a PerkinElmer Envision multi-label analyzer.
25 μL of Promega CellTiter-Glo reagent was added to each well of this cell plate, and incubated at room temperature for 10 minutes to stabilize the luminescence signal. Readings were taken using a PerkinElmer Envision multi-label analyzer.
Using the equation (Sample-Min)/(Max-Min)*100% to convert the original data to the inhibition rate, the IC50 value can be obtained by curve fitting with four parameters (obtained by “log(inhibitor) vs. response in GraphPad Prism—Variable slope mode).

Consider `CC(C)N1CCC(COc2cnc(-c3cccc(Cn4c(=O)ccn5c6cc(C#N)ccc6nc45)c3)nc2)CC1` [Hydrochloride of compound 25], for which the Exposure AUC in data set [1] came to 2.08 µM·h. Also, in data set [1], the Vd stood at 5.41 L/kg. Further, the clearance in data set [1] worked out at 14.7 mL/min/kg. For the same compound, the half-life in data set [1] is 4.51 h. In addition, the bioavailability in data set [1] is 27%. The Exposure AUC0-last in data set [1] stood at 5.56 µM·h. For the same compound, the Maximum blood concentration in data set [1] is 541 nmol. This compound gave a Peak time in data set [1] of 2.33 h. The Tumor volume in data set [2] (10 mg/kg oral daily (stopped after 15 days), day 18, mean ± standard error) came to 34 ± 4 mm^3; in data set [2] (10 mg/kg oral daily (stopped after 15 days), day 21, mean ± standard error), 44 ± 6 mm^3; in data set [2] (10 mg/kg oral daily (stopped after 15 days), day 25, mean ± standard error) it was 83 ± 11 mm^3; in data set [2] (10 mg/kg oral daily (stopped after 15 days), day 25, mean ± standard error, listed as hydrochloride of compound 25), 83 mm^3; in data set [2] (10 mg/kg oral daily (stopped after 15 days), day 27, mean ± standard error), 120 ± 25 mm^3; in data set [2] (10 mg/kg oral daily, day 0, mean ± standard error) it was 243 ± 21 mm^3. Also, the Tumor volume is 247 ± 20 mm^3 in data set [2] (10 mg/kg oral daily, day 4, mean ± standard error); 162 ± 13 mm^3 in data set [2] (10 mg/kg oral daily, day 7, mean ± standard error); 67 ± 9 mm^3 in data set [2] (10 mg/kg oral daily, day 11, mean ± standard error); 46 ± 5 mm^3 in data set [2] (10 mg/kg oral daily, day 14, mean ± standard error); 4 ± 0 mm^3 in data set [2] (20 mg/kg oral daily (stopped after 15 days), day 18, mean ± standard error); 4 ± 0 mm^3 in data set [2] (20 mg/kg oral daily (stopped after 15 days), day 21, mean ± standard error). Also, the Tumor volume in data set [2] (20 mg/kg oral daily (stopped after 15 days), day 25, mean ± standard error) stood at 4 ± 0 mm^3; in data set [2] (20 mg/kg oral daily (stopped after 15 days), day 25, mean ± standard error, listed as hydrochloride of compound 25), 4 mm^3; in data set [2] (20 mg/kg oral daily (stopped after 15 days), day 27, mean ± standard error), 2 ± 1 mm^3; in data set [2] (20 mg/kg oral daily, day 0, mean ± standard error) it was 244 ± 22 mm^3; in data set [2] (20 mg/kg oral daily, day 4, mean ± standard error), 174 ± 12 mm^3; in data set [2] (20 mg/kg oral daily, day 7, mean ± standard error), 100 ± 8 mm^3. Besides, the Tumor volume is recorded as 32 ± 3 mm^3 in data set [2] (20 mg/kg oral daily, day 11, mean ± standard error) and 12 ± 3 mm^3 in data set [2] (20 mg/kg oral daily, day 14, mean ± standard error). Moreover, the “TGI (tumor growth inhibition rate)” value in data set [2] (10 mg/kg oral daily) is recorded as 108.9%; in data set [2] (20 mg/kg oral daily), 113.4%. Further, the “TRTV/CRTV (relative tumor proliferation rate T/C)” value in data set [2] (10 mg/kg oral daily) is reported as 4.3%; in data set [2] (20 mg/kg oral daily), 0.2%. Moreover, the IC50 in data set [3] worked out at 1.87 nM.

Turning to `CC(C)(O)CN1CCC(COc2cnc(-c3cccc(Cn4c(=O)ccn5c6cc(C#N)ccc6nc45)c3)nc2)CC1` [Hydrochloride of compound 39], in data set [1], the Exposure AUC stood at 1.8 µM·h, the Vd is 7.27 L/kg, the clearance stood at 15.8 mL/min/kg and the half-life is 6.73 h. In data set [1], this compound yielded a bioavailability of 82.3%, an Exposure AUC0-last of 14.9 µM·h, a Maximum blood concentration of 1070 nmol and a Peak time of 4 h. Half-maximal inhibition in data set [3] (IC50) was put at 4.81 nM.
